Results as given in patent publication US20250304578A1, “NITROGEN-CONTAINING FUSED HETEROCYCLIC COMPOUNDS OF N-SULFONAMIDE AND USE THEREOF” (NUTSHELL THERAPEUTICS (SHANGHAI) CO., LTD., priority 2023, published 2025).
Like-named read-outs stand apart in the source and are kept apart here.

Columns and labels:
[1] = Metabolic stability test in hepatocytes; format: in vitro ADME; conditions: cryopreserved hepatocytes in suspension; for hepatocyte CLint at 1 μM: read-out: In vitro Clint (μL/min/10^6 cells); for half-life at 1 μM: read-out: In vitro t1/2
Experimental: The test compound and the control drug verapamil powder were prepared into a high concentration stock solution using DMSO, and diluted to a 100 μM working solution with 50% acetonitrile/water before use, with final concentrations of 1 μM for the test compound and verapamil.
• 1) 49.5 mL of Williams' Medium E and 0.5 mL GlutaMAX were mixed as the incubation solution. The hepatocyte recovery solution and the incubation solution were pre-warmed in a 37° C. water bath for at least 15 minutes prior to use. • 2) A tube of cryopreserved hepatocytes was taken, ensuring that the hepatocytes were still in a cryogenic frozen state prior to resuscitation. The hepatocytes were quickly placed in a 37° C. water bath and gently shaken until all ice crystals were completely dispersed, sprayed with 70% ethanol and transferred to a biosafety cabinet. • 3) The contents of the hepatocyte tube were poured into a centrifuge tube containing 50 mL of recovery medium, which were centrifuged at 100 g for 10 minutes. After centrifugation, the recovery medium was aspirated, and sufficient incubation medium was added to obtain a cell suspension having a cell density of approximately 1.5×10^6 cells/mL. • 4) Cellometer Vision was used to count hepatocytes and determine the density of viable cells. The survival rate of hepatocytes must be greater than 75%. The hepatocyte suspension was diluted with incubation medium to a viable cell density of 0.5×10^6 cells/mL. • 5) A portion of hepatocyte suspension with a density of 0.5×10^6 cells/mL was boiled in water for 5 minutes to inactivate as a negative control. After cells were inactivated, substrate conversion mediated by non-cellular enzymes could be easily investigated.
• 1) 198 μL of the suspension of live or inactivated cells was transferred to a 96-well deep-well plate, which was then placed on a vortexer and preheated in an incubator for 10 minutes. Live cells were incubated in duplicate, while inactivated cells were incubated in single. • 2) 2 μL of 100 μM test compound or verapamil was added to each well for the reaction initiation, and the deep-well plate was placed back on the incubator vortexer. • 3) 25 μL of the suspension were taken from the incubated samples at 0, 15, 30, 60, 90, and 120 minutes, respectively, and added to 150 μL of acetonitrile containing internal standards (200 nM alprazolam, 200 nM labetalol, 2 μM ketoprofen, and 200 nM caffeine) to terminate the reaction. The mixture was vortexed for 10 minutes and centrifuged at 3220 g and 4° C. for 30 minutes. After centrifugation was completed, 100 μL of the supernatant and 100 μL of ultra-pure water were mixed well for UPLC-MS/MS analysis detection.
All data calculations were performed using Microsoft Excel software. Peak areas were detected by extracting the ion chromatogram. The in vitro half-life (t1/2) of the parent drug was detected by linear fitting of the natural logarithm of the percentage of parent drug […] with time.
The in vitro half-life (t1/2) was calculated by the slope: […]
In vitro intrinsic clearance (unit μL/min/10^6 cells) was calculated using the following formula:
[formula] • V=incubation volume per well (0.2 mL); • N=number of cells per well (0.1×10^6 cells)

CYP2C19 = CYP2C19 (Homo sapiens (Human), UniProt P33261); test: Inhibitory activity on CYP isoenzymes at a single concentration; format: in vitro ADME; conditions: pH 7.4, probe mephenytoin; final compound concentration 10 μM; human liver microsomes; substrate mephenytoin; NI: no inhibition; read-out: Inhibition rate (%) CYP2C19
Source text: The buffer was filtered through a 0.45 μm filter.

[2] = In vivo pharmacokinetic study in mice; conditions: male, mouse, plasma, CD-1 mice
Experimental: (§1) Intravenous injection: 40% HP-β-CD in water; intragastric administration: 0.2% HPC+0.5% Tween80 in water.
6 male mice. Fasting treatment was performed in the evening before the administration, with free access to water. During the experiment, the mice were allowed to eat and drink freely, and administered by intravenous injection or gavage. After administration, the animal status was observed, and abnormal behaviors were recorded. Blood was collected from the orbit at 0.0833, 0.25, 1, 2, 4, 8, and 24 hours after intravenous injection, and at 0.25, 0.5, 1, 2, 4, 6, 8, and 24 hours after intragastric administration. 20 μL of plasma sample was taken and added with 250 μL of acetonitrile (containing dexamethasone as an internal standard) to precipitate proteins. The mixture was centrifuged at 4° C. and 4000 rpm for 20 minutes, and 180 μL of the supernatant was taken and mixed with 180 μL of an aqueous solution containing 0.1% formic acid in a 96-well plate. Then, 10 μL of the sample was taken for LC-MS/MS detection.
(§2) The standard curve was established using the internal standard method, with the theoretical standard curve concentration as the X-axis and the peak area ratio as the Y-axis (peak area of the test compound/peak area of internal standard). Linear regression method (weighting factor 1/X2) was used, R^2>0.9900. Unknown samples were calculated by the standard curve. Pharmacokinetic parameters were calculated by the non-compartmental analysis model of WinNonlin 8.2 software and were presented in a report, including Clint, Cmax, AUC, etc.

[3] = In vivo pharmacokinetic study in rats; conditions: male, rat, plasma, SD rats
Experimental: as §1
6 male rats. Fasting treatment was performed in the evening before the administration, with free access to water. During the experiment, the rats were allowed to eat and drink freely, and administered by intravenous injection or gavage. After administration, the animal status was observed, and abnormal behaviors were recorded. Blood was collected via jugular vein puncture at 0.0833, 0.25, 1, 2, 4, 8, and 24 hours after intravenous injection; Blood was collected via jugular vein puncture at 0.25, 0.5, 1, 2, 4, 6, 8, and 24 hours after intragastric administration. 50 μL of plasma sample was taken and added with 500 μL of acetonitrile (containing dexamethasone as an internal standard) to precipitate proteins. The mixture was centrifuged at 4° C. and 4000 rpm for 20 minutes, and 300 μL of the supernatant was taken and mixed with 300 μL of Watsons aqueous solution in a 96-well plate. Then, 5 μL of the sample was taken for LC-MS/MS detection.
as §2

Chain of CYP2C19 (P33261 whole entry): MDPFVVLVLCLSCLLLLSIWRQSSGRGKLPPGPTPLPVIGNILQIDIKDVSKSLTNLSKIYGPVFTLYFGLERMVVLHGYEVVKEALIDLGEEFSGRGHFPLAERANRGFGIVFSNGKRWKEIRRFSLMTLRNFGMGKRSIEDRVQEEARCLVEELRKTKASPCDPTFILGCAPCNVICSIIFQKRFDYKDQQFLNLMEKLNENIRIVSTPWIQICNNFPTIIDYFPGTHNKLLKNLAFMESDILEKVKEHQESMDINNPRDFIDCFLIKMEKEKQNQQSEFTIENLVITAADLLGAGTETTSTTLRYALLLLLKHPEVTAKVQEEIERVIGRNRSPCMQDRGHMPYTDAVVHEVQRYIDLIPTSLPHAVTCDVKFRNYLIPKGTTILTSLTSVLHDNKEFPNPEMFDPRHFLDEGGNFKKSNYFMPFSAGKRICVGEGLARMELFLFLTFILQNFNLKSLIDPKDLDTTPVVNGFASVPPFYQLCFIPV

Structure (SMILES)	hepatocyte CLint at 1 μM ([1]; Human hepatocytes)	half-life at 1 μM ([1]; Human hepatocytes)	hepatocyte CLint at 1 μM ([1]; Mouse hepatocytes)	half-life at 1 μM ([1]; Mouse hepatocytes)	hepatocyte CLint at 1 μM ([1]; Rat hepatocytes)	half-life at 1 μM ([1]; Rat hepatocytes)	inhibition at 10 min, 10 µM (CYP2C19)	AUC(0-t) ([2]; IV 1 mg/kg)	AUC(0-t) ([2]; PO 10 mg/kg)	Cmax ([2]; PO 10 mg/kg)	AUC(0-t) ([3]; IV 1 mg/kg)	AUC(0-t) ([3]; PO 10 mg/kg)	Cmax ([3]; PO 10 mg/kg)
COc1nc(C(=O)NS(C)(=O)=O)ccc1NCC#Cc1cc2c(N[C@@H]3CCN(C)C[C@@H]3F)cccn2c1CC(F)(F)F [Cpd-1, 5-((3-(8-(((3S,4R)-3-Fluoro-1-methylpiperidin-4-yl)amino)-3-(2,2,2-trifluoroethyl)indolizin-2-yl)prop-2-yn-1-yl)amino)-6-methoxy-N-(methylsulfonyl)picolinamide]	< 2.7 µL/min/1e6 cells	> 8.52 h	< 2.7 µL/min/1e6 cells	> 8.52 h	< 2.7 µL/min/1e6 cells	> 8.52 h							
[2H]C([2H])([2H])Oc1nc(C(=O)NS(C)(=O)=O)ccc1NCC#Cc1cc2c(N[C@@H]3CCN(C)C[C@@H]3F)cccn2c1CC(F)(F)F [Cpd-2, 5-((3-(8-(((3S,4R)-3-Fluoro-1-methylpiperidin-4-yl)amino)-3-(2,2,2-trifluoroethyl)indolizin-2-yl)prop-2-yn-1-yl)amino)-6-(methoxy-d3)-N-(methylsulfonyl)picolinamide]	< 2.7 µL/min/1e6 cells	> 8.52 h	< 2.7 µL/min/1e6 cells	> 8.52 h	< 2.7 µL/min/1e6 cells	> 8.52 h	8.4%	1.7 µM·h	15.7 µM·h	5.9 µM	8.4 µM·h	58.4 µM·h	8.9 µM
